For the experiment, the target named is KDM5B/JARID1B/PLU-1 (Homo sapiens, UniProt Q9UGL1). Description: in vitro histone demethylase inhibition, Ki. The experiment is classed as biochemical.

Consider one compound from paper PMC3229304 (2011).

The structures appear in SMILES notation.

KDM5B/JARID1B/PLU-1, sequence (Q9UGL1 whole entry): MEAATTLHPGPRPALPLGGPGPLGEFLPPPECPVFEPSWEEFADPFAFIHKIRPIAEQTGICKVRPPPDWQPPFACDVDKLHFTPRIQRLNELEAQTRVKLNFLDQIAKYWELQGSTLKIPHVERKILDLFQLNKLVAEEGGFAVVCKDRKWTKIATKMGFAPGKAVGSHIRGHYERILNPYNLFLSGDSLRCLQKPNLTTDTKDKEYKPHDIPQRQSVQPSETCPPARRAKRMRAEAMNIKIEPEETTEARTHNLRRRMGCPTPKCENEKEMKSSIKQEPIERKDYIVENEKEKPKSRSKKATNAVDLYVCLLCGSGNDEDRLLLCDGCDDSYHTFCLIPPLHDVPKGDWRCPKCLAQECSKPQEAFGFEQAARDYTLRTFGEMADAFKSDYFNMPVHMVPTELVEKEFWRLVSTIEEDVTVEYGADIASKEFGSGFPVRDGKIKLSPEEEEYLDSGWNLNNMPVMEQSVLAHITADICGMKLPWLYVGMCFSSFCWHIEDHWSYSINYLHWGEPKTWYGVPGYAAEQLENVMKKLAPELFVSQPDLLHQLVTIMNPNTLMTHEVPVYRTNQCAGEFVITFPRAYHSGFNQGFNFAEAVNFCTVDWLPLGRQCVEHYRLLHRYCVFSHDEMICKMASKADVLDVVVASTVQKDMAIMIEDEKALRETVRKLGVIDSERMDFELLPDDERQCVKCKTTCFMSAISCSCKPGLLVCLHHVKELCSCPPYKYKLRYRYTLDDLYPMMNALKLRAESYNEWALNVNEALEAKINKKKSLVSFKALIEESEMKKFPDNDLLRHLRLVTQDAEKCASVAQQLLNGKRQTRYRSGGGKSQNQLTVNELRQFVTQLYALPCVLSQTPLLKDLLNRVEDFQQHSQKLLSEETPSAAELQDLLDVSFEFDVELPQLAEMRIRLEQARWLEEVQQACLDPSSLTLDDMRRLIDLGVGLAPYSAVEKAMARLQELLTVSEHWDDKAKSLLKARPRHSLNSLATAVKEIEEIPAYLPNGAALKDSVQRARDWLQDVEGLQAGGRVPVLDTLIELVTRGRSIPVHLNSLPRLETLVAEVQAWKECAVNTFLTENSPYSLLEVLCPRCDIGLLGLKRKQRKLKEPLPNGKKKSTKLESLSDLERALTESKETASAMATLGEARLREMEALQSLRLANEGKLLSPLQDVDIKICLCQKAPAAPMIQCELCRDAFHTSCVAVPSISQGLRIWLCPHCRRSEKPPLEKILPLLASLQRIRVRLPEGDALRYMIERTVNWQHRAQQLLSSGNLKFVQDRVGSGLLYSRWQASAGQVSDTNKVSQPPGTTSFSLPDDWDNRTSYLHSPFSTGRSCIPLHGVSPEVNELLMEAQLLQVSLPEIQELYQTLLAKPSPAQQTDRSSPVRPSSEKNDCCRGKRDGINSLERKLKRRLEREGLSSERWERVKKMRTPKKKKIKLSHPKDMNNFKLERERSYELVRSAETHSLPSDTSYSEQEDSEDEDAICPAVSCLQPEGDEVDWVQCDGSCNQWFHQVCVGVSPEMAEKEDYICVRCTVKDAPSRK

With `O=C(O)CNC(=O)C(=O)O` [N-oxalylglycine], the inhibitory constant (Ki) turned out to be 653 ± 128 µM.

One may read the Ki as a dissociation constant, usually derived from enzyme kinetics or from competition with a known ligand. Low readings indicate tighter binding, high ones weaker binding.
